Experimental findings from patent US11053205B2, “Phenazine derivatives as antimicrobial agents” (University of Florida Research Foundation, Incorporated, priority 2017, dated 2021) are described below.

In brackets after ≈: the same amount, converted by molar mass. Several values for one entry are separate records, joined by “and”; a condition that tells them apart may be missing. Equal entries are not always repeated. Where two headings read alike, the source gives them in different places. Marks after values point to notes of the source that are not given here. Some results are limits rather than exact numbers.

The test system of series [1] is M. tuberculosis H37Ra (ATCC 25177). The experiment in a line: MIC assay for Mycobacterium tuberculosis. In kind it is cell-based. The note with it: read-out: MtB H37Ra MIC. The method, then: The culture was then diluted with fresh medium until an OD600 of 0.01 was reached. […] The final DMSO concentration was maintained at 0.5%. […] Three rows were reserved for each compound. […] OD600 absorbance was recorded using SPECTRAMAX M5 (Molecular Devices). Data obtained from three independent experiments were analyzed using Excel.
The culture was then diluted with fresh medium until an OD600 of 0.01 was reached. […] The final DMSO concentration was maintained at 0.5%. […] Three rows were reserved for each compound. […] OD600 absorbance was recorded using SpectraMax M5 (Molecular Devices). Data obtained from three independent experiments were analyzed using Excel.

Series [2] deals with MRSA BAA-1707. The experiment in a line: MIC, broth microdilution (CLSI). The note with it: 16 to 18 hours at 37° C.; 0.10 = lowest concentration tested. (In general: Dilution methods test growth across graded concentrations, often in twofold steps.)
For the next series, the system named is VRE 700221. The series can be described thus: MIC, broth microdilution (CLSI). The note with it: 16 to 18 hours at 37° C.
The next series deals with MRSE 35984. The series can be described thus: MIC, broth microdilution (CLSI). The note with it: 16 to 18 hours at 37° C.
The next series concerns MRSE 35984 biofilms. The series can be described thus: Calgary Biofilm Device (CBD) assay, MBC/MBEC. The note with it: CBD; for MRSE 35984 MBEC: biofilm eradication; for MRSE 35984 MBC: planktonic killing.
In the next series the test system is MRSA BAA-1707 biofilms. The series can be described thus: Calgary Biofilm Device (CBD) assay, MBC/MBEC. The note with it: CBD, planktonic killing.
The test system of a further series is VRE 700221 biofilms. The series can be described thus: Calgary Biofilm Device (CBD) assay, MBC/MBEC. The note with it: CBD; for VRE 700221 MBEC: biofilm eradication; for VRE 700221 MBC: planktonic killing.
For another series, the system named is MRSA-2. The series can be described thus: MIC, broth microdilution (CLSI). The note with it: 16 to 18 hours at 37° C.
In a further series the test system is MRSA-2 biofilms. The series can be described thus: Calgary Biofilm Device (CBD) assay, MBC/MBEC. The note with it: CBD; for MRSA-2 MBEC: biofilm eradication.
The subject of series [3] is MRSA BAA-1707. The experiment in a line: Metal(II)-cation co-treatment MIC assay. In kind it is cell-based. The note with it: Staphylococcus aureus, read-out: MIC w/ Mg2+.
The mark [4] stands for this setting: Mycobacterium tuberculosis, 168 h, seven days at 37° C.

With `Oc1c(Br)cc(Br)c2nc3ccc(Cl)cc3nc12` [HP 1-22], the “Hemolysis at 200 μM” value with human red blood cells (human, 1 h, 200 μM, pH 7.2) is at most 1%. In addition, the MIC in series [1] (setting [4]) was 6.25 µM and 2.4 µg/mL.

As to `Cc1ccc2nc3c(O)ccc(Br)c3nc2c1` [Compound 66A], the “MRSA BAA-1707 MIC” value with MRSA BAA-1707 [2] was 12.5 ^ μM. In the series with VRE 700221, the “VRE 700221 MIC” value was 25 µM. Besides, the “MRSE 35984 MIC” value in the series on MRSE 35984 came to 12.5 µM. Moreover, in series [1], the MIC was determined as 25 µM (≈ 7.23 µg/mL).

As for `CC1=C(C)C(=O)C(COC(=O)OCOc2c(Br)cc(Br)c3nc4ccccc4nc23)=C(C)C1=O` [Compound 86A], in the series with human red blood cells, the “Hemolysis at 200 μM” value is recorded as at most 1%. Further, the “MRSA BAA-1707 MIC” value with MRSA BAA-1707 [2] is listed as 2.35^a μM. In addition, in the series on VRE 700221, the “VRE 700221 MIC” value was 9.38^a μM. The “MRSE 35984 MIC” value in the series with MRSE 35984 is on record as 2.35^a μM. For the same compound, in the series on MRSE 35984 biofilms, the “MRSE 35984 MBEC” value is 150 µM and the “MRSE 35984 MBC” value was 37.5 µM. Besides, the “MRSA BAA-1707 MBC” value with MRSA BAA-1707 biofilms stood at 25 µM. Further, in the series with VRE 700221 biofilms, the “VRE 700221 MBEC” value was found to be 9.38 µM and the “VRE 700221 MBC” value is 12.5 µM.

For `CC(C)(C)c1ccc2nc3c(O)c(Br)cc(Br)c3nc2c1` [Compound 55A], in the series with MRSA-2, the “MRSA-2 MIC” value is reported as 0.1^b μM. In addition, the “Hemolysis at 200 μM” value in the series with human red blood cells is reported as at most 1%. For the same compound, the “MRSA BAA-1707 MIC” value in the series on MRSA BAA-1707 [2] is on record as 0.1^b μM. Besides, in the series on VRE 700221, the “VRE 700221 MIC” value was 0.1^b μM. Further, the “MRSE 35984 MIC” value with MRSE 35984 is 0.1^b μM. For the same compound, the “MRSA-2 MBEC” value in the series on MRSA-2 biofilms is on record as 3.13/3.13 μM. The “MRSA-2 MBC” value in the series on MRSA-2 biofilms (planktonic killing) is 3.13/3.13 μM.

Turning to `Oc1cccc2cccnc12` [8-OHQ, 8-hydroxyquinoline], in the series with MRSA BAA-1707 [3], the MIC stood at 6.25 µM.

Usually IC50 stands for the concentration at which inhibition is half-maximal. For the compound `Oc1ccc(Br)c2nc3cc(Cl)ccc3nc12` [Compound 69A], in the series on HeLa cells, the IC50 is over 100 µM. Moreover, in the series on VRE 700221, the “VRE 700221 MIC” value was 25 µM. Moreover, the “MRSE 35984 MIC” value in the series on MRSE 35984 is on record as 18.8^a μM. For the same compound, in [1], the MIC is reported as 6.25 µM (≈ 1.93 µg/mL).

Compound `CC(C)(C)c1ccc2nc3c(O)c(Br)cc(Br)c3nc2c1` [55A] showed an IC50 with HeLa cells of over 100 µM. In addition, the “MRSA-2 MBEC” value in the series with MRSA-2 biofilms is 3.13 µM.

For the compound `CC1=C(C)C(=O)C(COC(=O)OCOc2c(Br)cc(Br)c3nc4cc(Cl)ccc4nc23)=C(C)C1=O` [Compound 87A], the “MRSA BAA-1707 MIC” value with MRSA BAA-1707 [2] is given as 0.15^a μM. The “VRE 700221 MIC” value in the series with VRE 700221 turned out to be 1.56 µM. In addition, in the series with MRSE 35984 biofilms, the “MRSE 35984 MBEC” value was found to be 25 µM and the “MRSE 35984 MBC” value was 12.5 µM. Besides, the “MRSA BAA-1707 MBC” value with MRSA BAA-1707 biofilms turned out to be 6.25 µM. Further, in the series on VRE 700221 biofilms, the “VRE 700221 MBEC” value is reported as 3.13^c/3.13^c μM and the “VRE 700221 MBC” value is on record as 3.13^c/3.13^c μM.

On to `Cc1cc(C)c2nc3c(Br)ccc(O)c3nc2c1` [Compound 68A], for which, in the series with MRSA BAA-1707 [2], the “MRSA BAA-1707 MIC” value is on record as 4.69^a μM. Besides, the IC50 in the series with HeLa cells was over 100 µM. In the series with VRE 700221, the “VRE 700221 MIC” value is listed as 9.38^a μM. The “MRSE 35984 MIC” value in the series on MRSE 35984 is reported as 2.35^a μM. For the same compound, the MIC in series [1] came to 50 µM (≈ 15.2 µg/mL).

Take `COCCOCCOCCOCCOC(=O)Oc1c(Br)cc(Br)c2nc3ccccc3nc12` [HP 1-24]: the “Hemolysis at 200 μM” value with human red blood cells (human, 1 h, 200 μM, pH 7.2) stood at 2.4%. Besides, the “HeLa cell cytotoxicity at 100 μM” value in the series with HeLa cells is given as “no HeLa cell cytotoxicity”. Besides, in series [1] (setting [4]), the MIC came out at 25 µM (≈ 14.7 µg/mL).

In the case of `Oc1c(Br)cc(Br)c2nc3cc(Oc4ccccc4)ccc3nc12` [Compound 63A], the “MRSA-2 MIC” value in the series on MRSA-2 stood at 0.39 µM. The “Hemolysis at 200 μM” value in the series on human red blood cells is given as at most 1%. Besides, the “MRSA BAA-1707 MIC” value in the series on MRSA BAA-1707 [2] is recorded as 0.075^a μM. The “MRSE 35984 MIC” value with MRSE 35984 is 0.1^b μM. In the series with MRSA BAA-1707 biofilms, the “MRSA BAA-1707 MBC” value was determined as […]. Besides, the “VRE 700221 MBC” value in the series on VRE 700221 biofilms is 2.35 µM. Moreover, in series [1], the MIC was 6.25 µM (≈ 2.79 µg/mL).
